Laboratory results from patent publication US11813306B2, “Cyclic tetramer compounds as proprotein convertase subtilisin/kexin type 9 (PCSK9) inhibitors for the treatment of metabolic disorders” (NOVARTIS AG, priority 2018, dated 2023).

Target: human PCSK9 (Homo sapiens, UniProt Q8NBP7)
Test: PCSK9 ligand binding assay (TR-FRET): interference with binding of human PCSK9 to human LDLR
Conditions: for IC50: Human PCSK9 Alexa Fluor 647 / Human LDLR extracellular domain-Europium Kryptate; for Max % inhibition: efficacy (Amax), 100% = 1 uM unlabeled human PCSK9, 0% = DMSO
How it was run: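 Read-out was TR-FRET ratio (665 nm over 615 nm, 330 nm excitation) between Alexa Fluor 647-human PCSK9 (16 nM added) and Europium Kryptate-human LDLR ectodomain (4 nM added). Compound and PCSK9 were mixed 30 min before LDLR, then incubated 2 h. Inhibition was normalised to DMSO and unlabelled-PCSK9 controls, giving IC50 and Amax.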

Chain of human PCSK9 (Q8NBP7 153-692): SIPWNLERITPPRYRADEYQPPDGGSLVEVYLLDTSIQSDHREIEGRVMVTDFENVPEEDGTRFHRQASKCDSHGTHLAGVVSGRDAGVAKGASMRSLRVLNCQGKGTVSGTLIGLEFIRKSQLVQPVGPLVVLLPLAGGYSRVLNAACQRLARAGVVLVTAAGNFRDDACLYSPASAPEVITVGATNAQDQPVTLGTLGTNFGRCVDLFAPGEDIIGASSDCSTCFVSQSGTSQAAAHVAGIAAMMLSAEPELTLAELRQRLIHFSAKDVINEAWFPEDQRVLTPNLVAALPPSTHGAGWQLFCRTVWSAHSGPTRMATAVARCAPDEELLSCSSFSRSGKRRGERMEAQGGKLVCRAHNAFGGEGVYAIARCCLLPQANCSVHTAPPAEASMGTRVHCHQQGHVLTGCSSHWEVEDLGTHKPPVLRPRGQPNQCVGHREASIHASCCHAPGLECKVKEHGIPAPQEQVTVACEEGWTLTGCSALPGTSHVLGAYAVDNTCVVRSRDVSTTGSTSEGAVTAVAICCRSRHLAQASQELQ
Chain of human PCSK9 (Q8NBP7 31-152 partner limits assumed): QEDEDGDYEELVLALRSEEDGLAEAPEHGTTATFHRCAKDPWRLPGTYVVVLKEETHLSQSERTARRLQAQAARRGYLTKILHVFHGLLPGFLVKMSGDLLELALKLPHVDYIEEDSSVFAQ

Row | IC50 [nM] | Max % inhibition [%] | Structure (SMILES)
1 | 1.12 | 101.3 | CCC[C@@H]1CC(=O)N(Cc2c(F)cc(Cl)cc2Oc2ccc(-c3cnc(CN(C)C)n3C)cc2)[C@@H](C)C(=O)N[C@@H](CO)C(=O)N[C@@]2(Cc3ccc(Cl)cc3)CCCN(C2)C1=O [Compound 51, (3R, 7S, 10S, 13R)-6-(4-chloro-2-(4-(2-((dimethylamino)methyl)-1-methyl-1H-imidazol-5-yl)phenoxy)-6-fluorobenzyl)-13-(4-chlorobenzyl)-10-(hydroxymethyl)-7-methyl-3-propyl-1,6,9,12-tetraazabicyclo[11.3.1]heptadecane-2,5,8,11-tetraone]
2 | 0.152 | 115.5 | C[C@H]1C(=O)N[C@@H](CO)C(=O)N[C@@]2(Cc3ccc(Cl)cc3)CCCN(C2)C(=O)[C@H](CC2CC2)CC(=O)N1Cc1c(F)cc(Cl)cc1Oc1ccc(-c2cnc(CN3CCCC3)n2C)cc1 [Compound 10, (3R, 7S, 10S, 13R)-6-(4-chloro-2-fluoro-6-(4-(1-methyl-2-(pyrrolidin-1-ylmethyl)-1H-imidazol-5-yl)phenoxy)benzyl)-13-(4-chlorobenzyl)-3-(cyclopropylmethyl)-10-(hydroxymethyl)-7-methyl-1,6,9,12-tetraazabicyclo[11.3.1]heptadecane-2,5,8,11-tetraone]
3 | 0.631 | 102.2 | C[C@H]1C(=O)N[C@@H](CO)C(=O)N[C@@]2(Cc3ccc(Cl)cc3)CCCN(C2)C(=O)[C@H]([C@@H]2CCc3ccccc32)CC(=O)N1Cc1c(F)cc(Cl)cc1Oc1ccc(-c2cnc(CN(C)C)n2C)cc1 [Compound 49, (3S, 7S, 10S, 13R)-6-(4-chloro-2-(4-(2-((dimethylamino)methyl)-1-methyl-1H-imidazol-5-yl)phenoxy)-6-fluorobenzyl)-13-(4-chlorobenzyl)-3-((S)-2,3-dihydro-1H-inden-1-yl)-10-(hydroxymethyl)-7-methyl-1,6,9,12-tetraazabicyclo[11.3.1]heptadecane-2,5,8,11-tetraone]
4 | 25 | 99.0 | COC[C@@H]1NC(=O)[C@H](C)N(Cc2ccc(Cl)cc2Oc2ccc(-c3cnc(CN4CCCC4)n3C)cc2)C(=O)C[C@@H]([C@H]2CCc3ccccc32)C(=O)N(CC2(C)CC2)C[C@@H](Cc2ccc(Cl)cc2)N(C)C1=O.Cl [Compound 115, (2S, 5S, 8R, 12S)-1-(4-chloro-2-(4-(1-methyl-2-(pyrrolidin-1-ylmethyl)-1H-imidazol-5-yl)phenoxy)benzyl)-8-(4-chlorobenzyl)-12-((R)-2,3-dihydro-1H-inden-1-yI)-5-(methoxymethyl)-2,7-dimethyl-10-((1-methylcyclopropyl)methyl)-1,4,7,10-tetraazacyclotetradecane-3,6,11,14-tetraone]
5 | 0.425 | 101.7 | C[C@H]1C(=O)N[C@@H](CO)C(=O)N[C@@]2(Cc3ccc(Cl)cc3)CCCN(C2)C(=O)[C@H](Cc2ccccc2)CC(=O)N1Cc1ccc(Cl)cc1Oc1ccc(-c2nnc(CN(C)C)n2C)cc1 [Compound 56, (3R, 7S, 10S, 13R)-3-benzyl-6-(4-chloro-2-(4-(5-((dimethylamino)methyl)-4-methyl-4H-1,2,4-triazol-3-yl)phenoxy)benzyl)-13-(4-chlorobenzyl)-10-(hydroxymethyl)-7-methyl-1,6,9,12-tetraazabicyclo[11.3.1]heptadecane-2,5,8,11-tetraone]
6 | 1.63 | 113.8 | COC[C@@H]1NC(=O)[C@H](C)N(Cc2c(F)cc(Cl)cc2Oc2ccc(-c3cnc(CN(C)C4CCC4)n3C)cc2)C(=O)C[C@@H](CC(F)(F)F)C(=O)N2CCC[C@@](Cc3ccc(Cl)cc3)(C2)NC1=O [Compound 160, (3S, 7S, 10S, 13R)-6-(4-chloro-2-(4-(2-((cyclobutyl(methyl)amino)methyl)-1-methyl-1H-imidazol-5-yl)phenoxy)-6-fluorobenzyl)-13-(4-chlorobenzyl)-10-(methoxymethyl)-7-methyl-3-(2,2,2-trifluoroethyl)-1,6,9,12-tetraazabicyclo[11.3.1]heptadecane-2,5,8,11-tetraone]
7 | 0.37 | 108.5 | C[C@H]1C(=O)N[C@@H](CO)C(=O)N(C)[C@@]2(Cc3ccc(Cl)cc3)CCCN(C2)C(=O)[C@H](CC(F)(F)F)CC(=O)N1Cc1c(F)cc(Cl)cc1Oc1ccc(-c2cnc(CN(C)C)n2C)cc1 [Compound 82, (3S,7S,10S,13R)-6-(4-Chloro-2-(4-(2-((dimethylamino)methyl)-1-methyl-1H-imidazol-5-yl)phenoxy)-6-fluorobenzyl)-13-(4-chlorobenzyl)-10-(hydroxymethyl)-7,12-dimethyl-3-(2,2,2-trifluoroethyl)-1,6,9,12-tetraazabicyclo[11.3.1]heptadecane-2,5,8,11-tetraone]

More lines, now with the values behind:

Row | Structure (SMILES) | IC50 [nM] | Max % inhibition [%]
8 | COC[C@@H]1NC(=O)[C@H](C)N(Cc2ccc(Cl)cc2Oc2ccc(-c3cnc(CN(C)C)n3C)nc2)C(=O)C[C@@H](Cc2ccccc2)C(=O)N2CCC[C@@](Cc3ccc(Cl)cc3)(C2)N(C)C1=O [Compound 27, (3R,7S,10S,13R)-3-Benzyl-6-(4-chloro-2-((6-(2-((dimethylamino)methyl)-1-methyl-1H-imidazol-5-yl)pyridin-3-yl)oxy)benzyl)-13-(4-chlorobenzyl)-10-(methoxymethyl)-7,12-dimethyl-1,6,9,12-tetraazabicyclo[11.3.1]heptadecane-2,5,8,11-tetraone] | 0.627 | 111.0
9 | COC[C@@H]1NC(=O)[C@H](C)N(Cc2ccc(Cl)cc2Oc2ccc(-c3cnc(CN(C)C)n3C)cc2)C(=O)C[C@@H](CC(F)(F)F)C(=O)N2CCC[C@@](Cc3ccc(Cl)cc3)(C2)N(C)C1=O [Compound 9, (3S, 7S, 10S, 13R)-6-(4-chloro-2-(4-(2-((dimethylamino)methyl)-1-methyl-1H-imidazol-5-yl)phenoxy)benzyl)-13-(4-chlorobenzyl)-10-(methoxymethyl)-7,12-dimethyl-3-(2,2,2-trifluoroethyl)-1,6,9,12-tetraazabicyclo[11.3.1]heptadecane-2,5,8,11-tetraone] | 0.22 | 111.3
10 | C[C@H]1C(=O)N[C@@H](CO)C(=O)N[C@@]2(Cc3ccc(Cl)cc3)CCCN(C2)C(=O)[C@H](CC2CC2)CC(=O)N1Cc1ccc(Cl)cc1Oc1ccc(-c2cnc(CNC(C)(C)C)n2C)cc1 [Compound 148, (3R, 7S, 10S, 13R)-6-(2-(4-(2-((tert-butylamino)methyl)-1-methyl-1H-imidazol-5-yl)phenoxy)-4-chlorobenzyl)-13-(4-chlorobenzyl)-3-(cyclopropylmethyl)-10-(hydroxymethyl)-7-methyl-1,6,9,12-tetraazabicyclo[11.3.1]heptadecane-2,5,8,11-tetraone] | 1.09 | 111.9
11 | COC[C@@H]1NC(=O)[C@H](C)N(Cc2ccc(Cl)cc2Oc2ccc(-c3cnc(CN4CCN(C)CC4)n3C)cc2)C(=O)C[C@@H](Cc2ccccc2)C(=O)N2CCC[C@@](Cc3ccc(Cl)cc3)(C2)NC1=O.Cl [Compound 76, (3R, 7S, 10S, 13R)-3-benzyl-6-(4-chloro-2-(4-(1-methyl-2-((4-methylpiperazin-1-yl)methyl)-1H-imidazol-5-yl)phenoxy)benzyl)-13-(4-chlorobenzyl)-10-(methoxymethyl)-7-methyl-1,6,9,12-tetraazabicyclo[11.3.1]heptadecane-2,5,8,11-tetraone] | 0.81 | 101.7
12 | C[C@H]1C(=O)N[C@@H](CO)C(=O)N[C@@]2(Cc3ccc(Cl)cc3)CCCN(C2)C(=O)[C@H](Cc2ccccc2)CC(=O)N1Cc1c(F)cc(F)cc1Oc1ccc(-c2cnc(CN3CCCC3)n2C)cc1 [Compound 75, (3R, 7S, 10S, 13R)-3-benzyl-13-(4-chlorobenzyl)-6-(2,4-difluoro-6-(4-(1-methyl-2-(pyrrolidin-1-ylmethyl)-1H-imidazol-5-yl)phenoxy)benzyl)-10-(hydroxymethyl)-7-methyl-1,6,9,12-tetraazabicyclo[11.3.1]heptadecane-2,5,8,11-tetraone] | 0.758 | 113.3
13 | C[C@H]1C(=O)N[C@@H](CO)C(=O)N[C@@]2(Cc3ccc(Cl)cc3)CCCN(C2)C(=O)[C@H](CC(F)(F)F)CC(=O)N1Cc1c(F)cc(Cl)cc1Oc1ccc(-c2cnc(CN3CCC3)n2C)cc1 [Compound 28, (3S, 7S, 10S, 13R)-6-(2-(4-(2-(azetidin-1-ylmethyl)-1-methyl-1H-imidazol-5-yl)phenoxy)-4-chloro-6-fluorobenzyl)-13-(4-chlorobenzyl)-10-(hydroxymethyl)-7-methyl-3-(2,2,2-trifluoroethyl)-1,6,9,12-tetraazabicyclo[11.3.1]heptadecane-2,5,8,11-tetraone] | 0.612 | 114.2
14 | C[C@@H](O)[C@@H]1NC(=O)[C@H](C)N(Cc2ccc(Cl)cc2Oc2ccc(-c3cnc(CN(C)C)n3C)cc2)C(=O)C[C@@H](CC(F)(F)F)C(=O)N2CCC[C@@](Cc3ccc(Cl)cc3)(C2)NC1=O [Compound 97, (3S, 7S, 10S, 13R)-6-(4-chloro-2-(4-(2-((dimethylamino)methyl)-1-methyl-1H-imidazol-5-yl)phenoxy)benzyl)-13-(4-chlorobenzyl)-10-((R)-1-hydroxyethyl)-7-methyl-3-(2,2,2-trifluoroethyl)-1,6,9,12-tetraazabicyclo[11.3.1]heptadecane-2,5,8,1-tetraone] | 2.08 | 91.2
15 | CC[C@@H]1CC(=O)N(Cc2c(OCC(F)(F)F)cc(Cl)cc2Oc2ccc(-c3cnc(CN4CCCC4)n3C)cc2)[C@@H](C)C(=O)N[C@@H](CO)C(=O)N(C)[C@H](Cc2ccc(Cl)cc2)CNC1=O.Cl [Compound 112, (2S, 5S, 8R, 12R)-1-(4-chloro-2-(4-(1-methyl-2-(pyrrolidin-1-ylmethyl)-1H-imidazol-5-yl)phenoxy)-6-(2,2,2-trifluoroethoxy)benzyl)-8-(4-chlorobenzyl)-12-ethyl-5-(hydroxymethyl)-2,7-dimethyl-1,4,7,10-tetraazacyclotetradecane-3,6,11,14-tetraone] | 13.5 | 98.8
